Assay results as given in patent publication US20050222106A1, “Drospirenone-containing preparations for transdermal use” (priority 2004, published 2005).
Entries after “also recorded” stand apart in the source; their conditions may differ.

What was measured:
[1] = Permeation through human skin from the preparation of Example 1; format: in vitro ADME
Method: (§1) 200 mg of the preparation made according to Example 1 were applied to bare mouse skin, which were fixed in modified Franz permeation cells as a permeation membrane. The results for the average permeation values for testosterone and drospirenone in μg/cm^2 versus time after application are shown in FIG. 1. The average values are the average of seven experimental runs. The mouse skin used was hairless mouse skin, HsdCpb NMRI-nu/nu, Harlan Bioservice, Walsrode.
(§2) Acceptable Medium for the Franz Cells:
(§3) At 3, 6, 9, 12, 15 and 18 hours samples of 100 μl were removed by an automatic sampling system from the acceptor medium of the Franz cells and injected into an HPLC automatic analyzer.
The preparation from example 1 was tested on human skin (female belly skin from cosmetic reduction, dermatomized at a layer thickness of about 450 μm).
The skin permeation values or mass transport amount for drospirenone and testosterone as a function of time after application of the preparation to the skin are shown in FIG. 2. The open squares indicate the measured permeation values for testosterone in […]. The open circles indicate the permeation values for drospirenone. The vertical lines on the circles and squares are error bars indicating the experimental error.

[2] = Permeation of bare mouse skin in modified Franz permeation cells; format: in vitro ADME; details: aqueous ethanolic vehicle (preparation of Example 1, 200 mg), FIG. 1, average of seven runs
Method: as §1, §2, §3
The filled-in circles indicate the measured permeation values for testosterone in FIG. 1. The filled-in squares indicate the permeation values for drospirenone. The vertical lines on the circles and squares are error bars indicating the experimental error.

C[C@]12CCC(=O)C=C1[C@@H]1C[C@@H]1[C@H]1[C@@H]3[C@@H]4C[C@@H]4[C@@]4(CCC(=O)O4)[C@@]3(C)CC[C@@H]12 [Drospirenone, drospirenone]
Permeation values relative to those of testosterone ([1]; female, human): about 40% | Mean cumulative Transport ([1]; female, human, 0 h): 0.00 μg/cm^2 | Mean cumulative Transport ([1]; female, human, 3 h): 0.87 μg/cm^2 | Mean cumulative Transport ([1]; female, human, 7 h): 2.04 μg/cm^2 | Mean cumulative Transport ([1]; female, human, 10 h): 2.86 μg/cm^2 | Mean cumulative Transport ([1]; female, human, 24 h): 8.67 μg/cm^2 | Mean cumulative Transport ([1]; female, human, 30 h): 12.13 μg/cm^2 | Mean cumulative Transport ([1]; female, human, 48 h): 19.23 μg/cm^2 | Permeation of mouse skin in vitro compared with testosterone [2]: approximately the same good extent as testosterone; also recorded: permeation values for testosterone are larger than those for drospirenone

C[C@]12CC[C@H]3[C@@H](CCC4=CC(=O)CC[C@@]43C)[C@@H]1CC[C@@H]2O [Testosterone]
Mean cumulative Transport ([1]; human skin, preparation of Example 1, time 0 h): 0.00 μg/cm^2 | Mean cumulative Transport ([1]; human skin, preparation of Example 1, time 3 h): 3.62 μg/cm^2 | Mean cumulative Transport ([1]; human skin, preparation of Example 1, time 7 h): 7.72 μg/cm^2 | Mean cumulative Transport ([1]; human skin, preparation of Example 1, time 10 h): 10.70 μg/cm^2 | Mean cumulative Transport ([1]; human skin, preparation of Example 1, time 24 h): 26.57 μg/cm^2 | Mean cumulative Transport ([1]; human skin, preparation of Example 1, time 30 h): 33.31 μg/cm^2 | Mean cumulative Transport ([1]; human skin, preparation of Example 1, time 48 h): 44.35 μg/cm^2
